Laboratory results from US20190069549A1, “HERBICIDAL COMPOSITIONS CONTAINING PYRIDINE CARBOXYLIC ACIDS OR DERIVATIVES THEREOF, WITH GLYPHOSATE OR GLUFOSINATE, OR DERIVATIVES THEREOF” (Dow AgroSciences LLC, priority 2017, published 2019).

Experiments:
Assay in all cases: Postemergence herbicidal activity, greenhouse trial (visual injury)
Format in all cases: in vivo
[1] = tested on: Brassica napus (spring rape; Roundup Ready), BRSNN-RR; settings: 5 g ae/ha alone, 20-22 d, Table 2
Procedure: (§1) Seeds of the desired test plant species were planted in Sun Gro MetroMix® 360 planting mixture, which typically has a pH of 6.0 to 6.8 and an organic matter content of about 30 percent, in plastic pots with a surface area of 103.2 square centimeters (cm^2). When required to ensure good germination and healthy plants, a fungicide treatment and/or other chemical or physical treatment was applied. The plants were grown for 7-36 days (d) in a greenhouse with an approximate 14-hour (h) photoperiod which was maintained at about 23° C. during the day and 22° C. during the night. Nutrients and water were added on a regular basis and supplemental lighting was provided with overhead metal halide 1000-Watt lamps as necessary. The plants were employed for testing when they reached the second or third true leaf stage.
(§2) Weighed amounts of technical material were dissolved in a volume of 97:3 volume per volume (v/v) acetone/dimethyl sulfoxide (DMSO) to make stock solutions. […] The concentrated stock solutions were diluted with an aqueous mixture of 1.5% v/v of Agri-dex crop oil concentrate to provide the appropriate application rates. Compound requirements are based upon a 12 milliliter (mL) application volume at a rate of 187 liters per hectare (L/ha). Spray solutions of the experimental compound mixtures were prepared by adding the stock solutions to the appropriate amount of dilution solution to form a 12 mL spray solution in two-way combinations. Formulated compounds were applied to the plant material with an overhead Mandel track sprayer equipped with 8002E nozzles calibrated to deliver 187 L/ha over an application area of 0.503 square meters (m^2) at a spray height of 18 inches (43 centimeters (cm)) above average plant canopy. Control plants were sprayed in the same manner with the solvent blank. Application rates for component (a) are in g ae/ha, and application rates for component (b) are in g ai/ha.
(§3) The treated plants and control plants were placed in a greenhouse as described above and watered by sub-irrigation to prevent wash-off of the test compounds. After 20-22 d, the condition of the test plants as compared with that of the control plants was determined visually and scored on a scale of 0 to 100 percent where 0 corresponds to no injury and 100 corresponds to complete kill. The condition of the test plants was compared with that of the control plants as determined visually and scored on a scale of 0 to 100 percent, where 0 corresponds to no injury and 100 corresponds to complete kill. Colby' s equation was used to determine the herbicidal effects expected from the mixtures.
(§4) Compound 1 was formulated as an EC and was combined with glyphosate or glufosinate and applied to weeds, and the phytotoxicity of the herbicidal composition was measured.

[2] = tested on: Brassica napus (winter rape), BRSNW; settings: 20-22 d
Procedure: as §1, §2, §3, §4

[3] = tested on: Brassica juncea (brown mustard), BRSJU; settings: 5 g ae/ha alone, 20-22 d, Table 2
Procedure: as §1, §2, §3, §4

[4] = tested on: Viola tricolor (wild pansy), VIOTR; settings: 20-22 d
Procedure: as §1, §2, §3, §4

[5] = tested on: Brassica alboglabra (chinese kale), BRSAG; settings: 5 g ae/ha alone, 20-22 d, Table 2
Procedure: as §1, §2, §3, §4

[6] = tested on: Abutilon theophrasti (velvetleaf), ABUTH; settings: 20-22 d
Procedure: as §1, §2, §3, §4

[7] = tested on: Helianthus annuus (sunflower), HELAN; settings: 20-22 d
Procedure: as §1, §2, §3, §4

[8] = tested on: Cirsium arvense (thistle), CIRAR; settings: 20-22 d
Procedure: as §1, §2, §3, §4

[9] = tested on: Digitaria sanguinalis (large crabgrass), DIGSA; settings: 20-22 d
Procedure: as §1, §2, §3, §4

[10] = tested on: Brassica rapa (turnip), BRSRR; settings: 20-22 d
Procedure: as §1, §2, §3, §4

[11] = tested on: Triticum aestivum (winter wheat), TRZAW; settings: 20-22 d
Procedure: as §1, §2, §3, §4

[12] = tested on: Zea mays (maize/corn), ZEAMX; settings: 20-22 d
Procedure: as §1, §2, §3, §4

[13] = tested on: Polygonum convolvulus (wild buckwheat), POLCO; settings: 20-22 d
Procedure: as §1, §2, §3, §4

For `Nc1c(F)c(-c2ccc3cc[nH]c3c2F)nc(C(=O)O)c1Cl` [Compound 1], the “% Visual Injury” value [1] was 35%, the “% Visual Injury” value ([2]; BRSNW* (retest), 5 g ae/ha alone, Table 1) was 50% and the “% Visual Injury” value ([2]; BRSNW* (retest), 5 g ae/ha alone, Table 2) was 30%. For the same compound, the “% Visual Injury” value ([2]; BRSNW, 5 g ae/ha alone, Table 1) was 30%, the “% Visual Injury” value ([2]; BRSNW, 5 g ae/ha alone, Table 2) was 50% and the “% Visual Injury” value [3] was 60%. For the same compound, the “% Visual Injury” value ([4]; 5 g ae/ha alone, Table 1) was 5%, the “% Visual Injury” value ([4]; 5 g ae/ha alone, Table 2) was 5% and the “% Visual Injury” value [5] was 15%. The “% Visual Injury” value ([6]; 5 g ae/ha alone, Table 1) was 60%, the “% Visual Injury” value ([6]; 5 g ae/ha alone, Table 2) was 60% and the “% Visual Injury” value ([7]; 5 g ae/ha alone, Table 1) was 70%. For the same compound, the “% Visual Injury” value ([7]; 5 g ae/ha alone, Table 2) was 70%, the “% Visual Injury” value ([8]; 5 g ae/ha alone, Table 1) was 10% and the “% Visual Injury” value ([8]; 5 g ae/ha alone, Table 2) was 10%. For the same compound, the “% Visual Injury” value ([9]; 5 g ae/ha alone, Table 1) was 5%, the “% Visual Injury” value ([9]; 5 g ae/ha alone, Table 2) was 5% and the “% Visual Injury” value ([10]; 5 g ae/ha alone, Table 1) was 50%. For the same compound, the “% Visual Injury” value ([10]; 5 g ae/ha alone, Table 2) was 50%, the “% Visual Injury” value ([11]; 5 g ae/ha alone, Table 1) was 5% and the “% Visual Injury” value ([11]; 5 g ae/ha alone, Table 2) was 5%. For the same compound, the “% Visual Injury” value ([12]; 5 g ae/ha alone, Table 1) was 0%, the “% Visual Injury” value ([12]; 5 g ae/ha alone, Table 2) was 0% and the “% Visual Injury” value ([13]; 5 g ae/ha alone, Table 1) was 65%. The “% Visual Injury” value ([13]; 5 g ae/ha alone, Table 2) was 65%.
`O=C(O)CNCP(=O)(O)O` [Glyphosate, N-(phosphonomethyl)glycine] was tested, and the “% Visual Injury” value ([2]; BRSNW* (retest), 210 g ai/ha alone, Table 1) was 30%, the “% Visual Injury” value ([2]; BRSNW, 210 g ai/ha alone, Table 1) was 20% and the “% Visual Injury” value ([4]; 210 g ai/ha alone, Table 1) was 50%. The “% Visual Injury” value ([6]; 210 g ai/ha alone, Table 1) was 60%, the “% Visual Injury” value ([7]; 210 g ai/ha alone, Table 1) was 65% and the “% Visual Injury” value ([8]; 210 g ai/ha alone, Table 1) was 25%. The “% Visual Injury” value ([9]; 210 g ai/ha alone, Table 1) was 70%, the “% Visual Injury” value ([10]; 210 g ai/ha alone, Table 1) was 65% and the “% Visual Injury” value ([11]; 210 g ai/ha alone, Table 1) was 75%. For the same compound, the “% Visual Injury” value ([12]; 210 g ai/ha alone, Table 1) was 0% and the “% Visual Injury” value ([13]; 210 g ai/ha alone, Table 1) was 45%.
